In brackets after ≈: the same amount, converted by molar mass.
Experiments:
Assay in all cases: antimicrobial activity, broth dilution method
Assay type in all cases: cell-based
[1] = tested on: Streptococcus pyogenes MH-771; details: for MIC: Streptococcus pyogenes, MH771, Streptococcus pyogenes MH-771, drug-resistant clinical isolate, read-out: minimum inhibitory concentration (MIC)
Experimental: (§1) Antimicrobial activity of the new antibiotics according to the present invention was measured on various pathogenic microorganisms by the broth dilution mehtod. Tab. […] The new antibiotics show a similar antimicrobial spectrum to that of tylosin as shown in Tab. 4. All the compounds have an excellent antimicrobial activity mainly on gram-positive bacteria. […] Test microorganisms with an asterisk mark (*) in Tab. 4 are all drug-resistant strains that were clinically isolated. More in detail, Staphylococcus aureus MS-8710 is resistant to tylosin, penicillin, tetracycline, erythromycin and leucomycin. Staphylococcus aureus MS-9931 is resistant to tylosin, penicillin, erythromycin, tetracycline, leucomycin, spiramycin and josamycin. And also Streptococcus piogenes is resistant to tylosin, erythromycin, oleandomycin and leucomycin.

[2] = tested on: Staphylococcus aureus MS-8710; details: for MIC: Staphylococcus aureus, MS8710, Staphylococcus aureus MS-8710, drug-resistant clinical isolate, read-out: minimum inhibitory concentration (MIC)
Experimental: as §1

[3] = tested on: Staphylococcus aureus SMITH; details: Staphylococcus aureus SMITH, broth dilution; for MIC: Staphylococcus aureus, read-out: minimum inhibitory concentration (MIC)
Experimental: as §1

Sarcina lutea ATCC 9341 = details: for MIC: Micrococcus luteus, ATCC9341, Sarcina lutea ATCC 9341, read-out: minimum inhibitory concentration (MIC)
Experimental: as §1

[4] = tested on: Bacillus cereus ATCC 9634; details: broth dilution; for MIC: Bacillus cereus, ATCC9634, Bacillus cereus ATCC 9634, read-out: minimum inhibitory concentration (MIC)
Experimental: as §1

[5] = tested on: Staphylococcus aureus FDA-209P; details: Staphylococcus aureus FDA-209P, broth dilution; for MIC: Staphylococcus aureus, FDA209P, read-out: minimum inhibitory concentration (MIC)
Experimental: as §1

[6] = tested on: Staphylococcus aureus MS-9931; details: Staphylococcus aureus MS-9931, drug-resistant clinical isolate; for MIC: MS9931, read-out: minimum inhibitory concentration (MIC)
Experimental: as §1

[7] = tested on: Staphylococcus aureus MS-9937; details: Staphylococcus aureus MS-9937, drug-resistant clinical isolate; for MIC: MS9937, read-out: minimum inhibitory concentration (MIC)
Experimental: as §1

| Compound | MIC [1] [µg/mL] | MIC [2] [µg/mL] | MIC [3] [µg/mL] | MIC (Sarcina lutea ATCC 9341) [µg/mL] | MIC [4] [µg/mL] | MIC [5] [µg/mL] | MIC [6] [µg/mL] | MIC [7] [µg/mL] | minimum inhibitory concentration (MIC) ([1]; Streptococcus pyogenes MH-771, drug-resistant clinical isolate) [µg/mL] | minimum inhibitory concentration (MIC) ([2]; Staphylococcus aureus MS-8710, drug-resistant clinical isolate) [µg/mL] | minimum inhibitory concentration (MIC) [3] [µg/mL] | minimum inhibitory concentration (MIC) (Sarcina lutea ATCC 9341; Sarcina lutea ATCC 9341) [µg/mL] | minimum inhibitory concentration (MIC) ([4]; Bacillus cereus ATCC 9634) [µg/mL] | minimum inhibitory concentration (MIC) [5] [µg/mL] | minimum inhibitory concentration (MIC) [6] [µg/mL] | minimum inhibitory concentration (MIC) [7] [µg/mL] |
| --- | --- | --- | --- | --- | --- | --- | --- | --- | --- | --- | --- | --- | --- | --- | --- | --- |
| CCC1OC(=O)CC(O)C(C)C(OC2OC(C)C(OC3CC(C)(O)C(O)C(C)O3)C(N(C)C)C2OC(=O)CCl)C(CC=O)CC(C)C(=O)C=CC(C)=CC1COC1OC(C)C(O)C(OC)C1OC (stereo not shown) [2'-monochloroacetyltylosin, reference compound] | > 200 | > 200 | 1.56 (≈ 1.57 µM) | 0.39 (≈ 0.393 µM) | 1.56 (≈ 1.57 µM) | 1.56 (≈ 1.57 µM) | 200 (≈ 201 µM) | 200 (≈ 201 µM) | – | – | – | – | – | – | – | – |
| CCC(=O)OC1C(OC2C(CC=O)CC(C)C(=O)C=CC(C)=CC(COC3OC(C)C(O)C(OC)C3OC)C(CC)OC(=O)CC(O)C2C)OC(C)C(OC2CC(C)(O)C(O)C(C)O2)C1N(C)C (stereo not shown) [2'-propionyltylosin, reference compound] | > 200 | > 200 | 1.56 (≈ 1.6 µM) | 0.39 (≈ 0.401 µM) | 1.56 (≈ 1.6 µM) | 1.56 (≈ 1.6 µM) | 200 (≈ 206 µM) | 200 (≈ 206 µM) | – | – | – | – | – | – | – | – |
| 4"-thienylacetyltylosin [Compound 30] | – | – | – | – | – | – | – | – | 6.25 | 12.5 | 0.39 | 0.19 | 0.39 | 0.39 | 25 | 25 |
| CCC1OC(=O)CC(OC(C)=O)C(C)C(OC2OC(C)C(OC3CC(C)(O)C(OC(=O)C(Cc4ccc(OC(C)=O)cc4)OC(C)=O)C(C)O3)C(N(C)C)C2O)C(CC=O)CC(C)C(=O)C=CC(C)=CC1COC1OC(C)C(O)C(OC)C1OC (stereo not drawn) [Compound 28, 3-acetyl-4"-[α-acetoxy-β-(4-acetoxyphenyl)propionyl]tylosin] | 25 (≈ 20.7 µM) | 25 (≈ 20.7 µM) | 1.56 (≈ 1.29 µM) | 0.78 (≈ 0.647 µM) | 1.56 (≈ 1.29 µM) | 1.56 (≈ 1.29 µM) | 50 (≈ 41.4 µM) | 25 (≈ 20.7 µM) | – | – | – | – | – | – | – | – |
| CCCCCC(=O)OC1C(C)OC(OC2C(C)OC(OC3C(CC=O)CC(C)C(=O)C=CC(C)=CC(COC4OC(C)C(O)C(OC)C4OC)C(CC)OC(=O)CC(OC(C)=O)C3C)C(O)C2N(C)C)CC1(C)O (stereo not shown) [Compound 8, 3-acetyl-4"-n-caproyl(or n-hexanoyl)tylosin] | 6.25 (≈ 5.92 µM) | 25 (≈ 23.7 µM) | 0.78 (≈ 0.738 µM) | 0.39 (≈ 0.369 µM) | 0.78 (≈ 0.738 µM) | 0.39 (≈ 0.369 µM) | 25 (≈ 23.7 µM) | 25 (≈ 23.7 µM) | – | – | – | – | – | – | – | – |
| CCC1OC(=O)CC(OC(C)=O)C(C)C(OC2OC(C)C(OC3CC(C)(O)C(OC(=O)Cc4cccnc4)C(C)O3)C(N(C)C)C2O)C(CC=O)CC(C)C(=O)C=CC(C)=CC1COC1OC(C)C(O)C(OC)C1OC (stereo not shown) [Compound 31, 3-acetyl-4"-(3-pyridyl)acetyltylosin] | 6.25 (≈ 5.8 µM) | 12.5 (≈ 11.6 µM) | 0.39 (≈ 0.362 µM) | 0.19 (≈ 0.176 µM) | 0.39 (≈ 0.362 µM) | 0.39 (≈ 0.362 µM) | 12.5 (≈ 11.6 µM) | 12.5 (≈ 11.6 µM) | – | – | – | – | – | – | – | – |
| CCC1OC(=O)CC(O)C(C)C(OC2OC(C)C(OC3CC(C)(O)C(O)C(C)O3)C(N(C)C)C2OC(C)=O)C(CC=O)CC(C)C(=O)C=CC(C)=CC1COC1OC(C)C(O)C(OC)C1OC (stereo not shown) [2'-acetyltylosin, reference compound] | > 200 | > 200 | 1.56 (≈ 1.63 µM) | 0.39 (≈ 0.407 µM) | 1.56 (≈ 1.63 µM) | 1.56 (≈ 1.63 µM) | 200 (≈ 209 µM) | 200 (≈ 209 µM) | – | – | – | – | – | – | – | – |
| CCC1OC(=O)CC(OC(C)=O)C(C)C(OC2OC(C)C(OC3CC(C)(O)C(OC(=O)CSc4ccncc4)C(C)O3)C(N(C)C)C2O)C(CC=O)CC(C)C(=O)C=CC(C)=CC1COC1OC(C)C(O)C(OC)C1OC (stereo not shown) [Compound 42, 3-acetyl-4"-(4-pyridyl)thioacetyltylosin] | 3.13 (≈ 2.82 µM) | 6.25 (≈ 5.63 µM) | 0.39 (≈ 0.352 µM) | 0.19 (≈ 0.171 µM) | 0.39 (≈ 0.352 µM) | 0.39 (≈ 0.352 µM) | 12.5 (≈ 11.3 µM) | 6.25 (≈ 5.63 µM) | – | – | – | – | – | – | – | – |

— patent US4205163A, “Tylosin derivatives” (Sanraku-Ocean Co., Ltd., priority 1977, dated 1980)
